These are literature values, as cited in patent US20240315956A1, “METHOD OF PRODUCTION OF THE COMPOSITION OF CYCLOOXYGENASE-2 (COX-2) INHIBITORS” (US NANO FOOD & DRUG INC, priority 2021, published 2024).

As for `Cc1ccc(-c2cc(C(F)(F)F)nn2-c2ccc(S(N)(=O)=O)cc2)cc1` [Celecoxib], the solubility in water entry was “practically insoluble in water”.

For the compound `CCCN1CC(c2ccc(S(C)(=O)=O)cc2)=C(c2ccc(C)cc2)C1=O` [Imrecoxib], the solubility in water entry is recorded as “practically insoluble in water”.

One may read the pKa as the pH at which an ionisable group is half protonated. On to `CCC1(C)CC(=O)NC1=O` (stereo not shown) [ethosuximide], for which the pKa is recorded as 10.73.

`Nc1nnc(-c2cccc(Cl)c2Cl)c(N)n1` [lamotrigine]: the pKa is 15.
